Results on one compound are retold here after patent US20250042924A1, “WATER-SOLUBLE PHYTIN” (OTSUKA PHARMACEUTICAL CO., LTD., priority 2021, published 2025).

The nature of series [1]: Test Example 4 stability (deliquescence). The format is physicochemical. Also noted: key: “Deliquesced” refers to a change where the sample completely liquefied to become starch syrup-like; “Partially-deliquesced” refers to a change where a part of the sample deliquesced or solidified.; “No change” refers to a no change in state of the sample. Particulars: 200 mg, 25° C., humidity 75.3%, 64 hours. The method, then: Ca(OH)2 (Inoue Calcium Corporation) as a calcium source, Mg(OH)2 (Tomita Pharmaceutical Co., Ltd.) as a magnesium source, KOH (NIPPON SODA CO., LTD.) as a potassium source, NaOH (Tosoh Corporation) as a sodium source were placed in a 50 mL PP tube (IWAKI) at the molar ratios of minerals shown in Table 3. Then a commercially available phytic acid solution (product name: phytic acid (IP6), TSUNO Food Industrial co., ltd.) 0.426 mL (containing 0.296 g of phytic acid) was placed therein. Distilled water (Otsuka Pharmaceutical Factory, Inc.) was added thereto to make up the volume to 30 mL. The mixture was stirred for 30 seconds using a vortex mixer, followed by ultrasonication (ASONE) for 60 seconds. This operation of stirring and ultrasonication was repeated three times in total. Then the mixture was adjusted to pH 4.0±0.2 with hydrochloric acid and pre-frozen at −80° C. The pre-frozen mixture was freeze-dried by using a freeze dryer to provide a completely powdered phytin. The completely powdered phytin was used as a sample.
As positive controls, a sample of phytic acid (powder) prepared following the above procedure without adding any mineral component, and a commercially available phytic acid powder product (product name: Powdered phytic acid, FUSO CHEMICAL CO., LTD.) were used. […]

Series [2] has as its system rat small intestine powder (enzyme solution). Nature of the series: Test Example 2 purine nucleotide metabolism inhibitory activity (inosine monophosphate substrate, HPLC). It counts as biochemical. To be noted: 37° C., 30 minutes. The method, then:
Ca(OH)2 (Inoue Calcium Corporation) as a calcium source, Mg(OH)2 (Tomita Pharmaceutical Co., Ltd.) as a magnesium source, KOH (NIPPON SODA CO., LTD.) as a potassium source, NaOH (Tosoh Corporation) as a sodium source were placed in a 50 mL PP tube (IWAKI) at molar ratios of the minerals shown in Table 2. Then a commercially available phytic acid solution (product name: phytic acid (IP6), TSUNO Food Industrial co., ltd.) 0.426 mL (containing 0.296 g of phytic acid) was placed therein. Distilled water (Otsuka Pharmaceutical Factory, Inc.) was added thereto to make up the volume to 30 mL. The mixture was stirred for 30 seconds using a vortex mixer, followed by ultrasonication (ASONE) for 60 seconds to prepare a test solution containing phytin with various mineral compositions.
As a positive control, a test solution containing a commercially available phytin (phytin (IP6), TSUNO Food Industrial co., ltd.) was prepared at the same concentration of phytic acid as the other test solutions.
A 100 mg/mL of solution of rat small intestine powder (Clare Japan, Inc.) in the assay buffer was used as an enzyme solution. Inosine monophosphate (Sigma-Aldrich) was diluted with the assay buffer to the concentration of 9 mM to prepare a substrate solution. Enzymatic reaction was performed using a 96 well plate (Thermo Fisher Scientific) in the following manner. […]

Molecules are shown by their SMILES.

On to `O=P(O)(O)O[C@H]1[C@H](OP(=O)(O)O)[C@@H](OP(=O)(O)O)[C@H](OP(=O)(O)O)[C@@H](OP(=O)(O)O)[C@H]1OP(=O)(O)O` [Phytic acid (PA), phytic acid], for which the Deliquescence result is recorded as “Deliquesced” in series [1] and “deliquesced” in series [1] (listed as phytic acid sample). For the same compound, the enzyme inhibitory activity entry in series [2] is reported as “around 30%”.
